The text below walks through data of ChEMBL document CHEMBL1201862, “PubChem BioAssay data set” (2004).

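In this assay, cells in 96-well plates receive the compound at five concentrations for 48 hours. Endpoints are linearly interpolated between the surrounding concentrations. Abbreviation: GI50, concentration required for 50% inhibition of growth.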 The source made the active and inactive calls. No stated cut-off is given here; in the data, active = GI50 up to about 1.1 µM and inactive = higher. Where only a bound is given, the exact number is not on record here.

Test systems include MDA-N; SK-OV-3; SN12C; MDA-MB-231; UACC-62; RPMI-8226; SNB-19; T47D; HOP-92; Malme-3M; IGROV-1; NCI-H226; HCC 2998; NCI-H460; HCT-116; Hs-578T; UO-31; SF-295; SW-620.
What all share (assay): inhibition of tumour cell growth, NCI panel, 48 h

Turning to `O=C1C=C(OCCCl)C(=O)c2c(O)ccc(O)c21`, the GI50 is 0.17 µM (active) in the test on MDA-N; 1.71 µM (inactive) in the test with SK-OV-3; 0.225 µM (active) in the test on SN12C; 1.78 µM (inactive) in the test with MDA-MB-231; 0.228 µM (active) in the test on UACC-62; 2.08 µM (inactive) with RPMI-8226. Also, the GI50 was 1.02 µM (active) in the test with SNB-19; 2.24 µM (inactive) with T47D; 2.15 µM (inactive) with HOP-92; 0.175 µM (active) with Malme-3M; 1.81 µM (inactive) in the test with IGROV-1; 2.26 µM (inactive) in the test with NCI-H226. Moreover, the GI50 in the test on HCC 2998 was 1.63 µM (inactive); in the test on NCI-H460, 0.395 µM (active); in the test on HCT-116, 0.409 µM (active); with Hs-578T it was 3.98 µM (inactive); in the test with UO-31 it was 1.42 µM (inactive); in the test on SF-295, 1.56 µM (inactive).

Turning to `COc1ccc2nc(N/N=C/c3ccc(C)s3)cc(C)c2c1`, the GI50 in the test with MDA-N is 16.3 µM (inactive); in the test with SK-OV-3 it was 22.9 µM (inactive); with SN12C, 17.9 µM (inactive); in the test with MDA-MB-231 it was 21.5 µM (inactive); in the test on UACC-62, 16.8 µM (inactive); in the test with RPMI-8226, 11.2 µM (inactive). For the same molecule, the GI50 was 17.3 µM (inactive) in the test on SNB-19; 17.1 µM (inactive) in the test with T47D; 13.9 µM (inactive) in the test with HOP-92; 31 µM (inactive) in the test with Malme-3M; 26.2 µM (inactive) in the test with IGROV-1; 14.8 µM (inactive) in the test with NCI-H226. Further, the GI50 was 16 µM (inactive) in the test on HCC 2998; 4.65 µM (inactive) in the test with HCT-116; 22.1 µM (inactive) with Hs-578T; 17.7 µM (inactive) in the test on UO-31; 16.9 µM (inactive) in the test with SF-295; 25.1 µM (inactive) with SW-620.

Turning to `Oc1cc(Br)cc2cccnc12`, the GI50 in the test with MDA-N was 8.28 µM (inactive); in the test with SK-OV-3, 27.6 µM (inactive); in the test on SN12C, 2.1 µM (inactive); in the test on MDA-MB-231, 2.52 µM (inactive); in the test with UACC-62, 1.92 µM (inactive); in the test on RPMI-8226, 1.31 µM (inactive). Moreover, the GI50 with SNB-19 was 15.6 µM (inactive); with T47D it was 3.59 µM (inactive); in the test with HOP-92, 5.15 µM (inactive); in the test with Malme-3M, 3.05 µM (inactive); in the test on IGROV-1, 1.71 µM (inactive); with NCI-H226 it was 8.41 µM (inactive). For the same molecule, the GI50 with HCC 2998 was 28.2 µM (inactive); in the test with NCI-H460, 1.31 µM (inactive); in the test with HCT-116, 1.78 µM (inactive); with Hs-578T it was 1.7 µM (inactive); in the test on UO-31, 1.5 µM (inactive); with SF-295 it was 1.67 µM (inactive). Also, the GI50 with SW-620 was 2.56 µM (inactive).

With `FC(F)(Sc1nc2ccccc2[nH]1)c1nc2ccccc2o1`, the GI50 in the test with MDA-N, with SK-OV-3, in the test on SN12C, in the test with MDA-MB-231, in the test with UACC-62 and in the test with RPMI-8226 was > 100 µM (inactive) in each case. Further, the GI50 is > 100 µM (inactive) with T47D; > 100 µM (inactive) with HOP-92; 24.4 µM (inactive) in the test on Malme-3M; > 100 µM (inactive) in the test on IGROV-1; > 100 µM (inactive) with NCI-H226; > 100 µM (inactive) in the test with HCC 2998. The GI50 with NCI-H460, with HCT-116, in the test on Hs-578T, with UO-31, in the test on SF-295 and with SW-620 was > 100 µM (inactive) each time.

Regarding `COc1cc2oc(-c3ccc4c(c3)OCO4)c(OC)c(=O)c2c(O)c1OC`, the GI50 is > 50 µM (inactive) with MDA-N; > 50 µM (inactive) in the test on SK-OV-3; > 50 µM (inactive) in the test on SN12C; 45.4 µM (inactive) with MDA-MB-231; > 50 µM (inactive) in the test on UACC-62; > 50 µM (inactive) with SNB-19. In addition, the GI50 with T47D was > 50 µM (inactive); in the test on HOP-92, 22.8 µM (inactive); in the test on Malme-3M it was > 50 µM (inactive); in the test with IGROV-1 it was > 50 µM (inactive); in the test on NCI-H226, > 50 µM (inactive); in the test with HCC 2998, > 50 µM (inactive). Moreover, the GI50 with NCI-H460 was > 50 µM (inactive); in the test with HCT-116 it was > 50 µM (inactive); in the test with Hs-578T, > 50 µM (inactive); in the test on UO-31, > 50 µM (inactive); in the test with SF-295, 43.8 µM (inactive); in the test on SW-620, > 50 µM (inactive).

Take `CCOC(=O)C(=C(SC)SC)c1nn2c(=O)cc(C)nc2s1`: the GI50 in the test with MDA-N is 16.4 µM (inactive); in the test on SK-OV-3, 69.7 µM (inactive); with SN12C, 33.1 µM (inactive); in the test on MDA-MB-231, 27.9 µM (inactive); in the test on UACC-62 it was 21 µM (inactive); in the test with RPMI-8226, 17.3 µM (inactive). Besides, the GI50 with SNB-19 was 27.2 µM (inactive); with T47D, 17 µM (inactive); in the test on HOP-92, 16.9 µM (inactive); with Malme-3M, 15.9 µM (inactive); with IGROV-1 it was 20.9 µM (inactive); in the test on NCI-H226 it was 21.4 µM (inactive). Besides, the GI50 is 18.8 µM (inactive) in the test with HCC 2998; 24 µM (inactive) in the test with NCI-H460; 16.4 µM (inactive) in the test on HCT-116; 43.9 µM (inactive) with Hs-578T; 19.5 µM (inactive) in the test with UO-31; 71.8 µM (inactive) in the test on SF-295. For the same molecule, the GI50 with SW-620 was 21 µM (inactive).

`C#CCC(O)c1ccc(OC)c(OCc2ccccc2)c1` (stereo not given): the GI50 in the test on MDA-N is > 100 µM (inactive); in the test with SK-OV-3, > 100 µM (inactive); in the test on SN12C it was > 100 µM (inactive); in the test on MDA-MB-231, 59.2 µM (inactive); in the test on UACC-62, > 100 µM (inactive); with RPMI-8226 it was > 100 µM (inactive). Further, the GI50 is > 100 µM (inactive) in the test with SNB-19; > 100 µM (inactive) in the test with T47D; > 100 µM (inactive) in the test on HOP-92; > 100 µM (inactive) in the test with Malme-3M; > 100 µM (inactive) with IGROV-1; 32.8 µM (inactive) with NCI-H226. Also, the GI50 is > 100 µM (inactive) in the test on HCC 2998; > 100 µM (inactive) in the test with NCI-H460; > 100 µM (inactive) in the test on HCT-116; > 100 µM (inactive) in the test with Hs-578T; > 100 µM (inactive) in the test with UO-31; 98.4 µM (inactive) in the test with SF-295.

Take `O=C1/C(=C/c2cccs2)N=C(c2ccccc2)N1c1nc2ccccc2s1`: the GI50 in the test on MDA-N was 91.6 µM (inactive); with SN12C it was > 100 µM (inactive); in the test on MDA-MB-231 it was > 100 µM (inactive); with RPMI-8226 it was 7.45 µM (inactive); in the test on SNB-19 it was > 100 µM (inactive); in the test with T47D it was 57.3 µM (inactive). The GI50 was 26.5 µM (inactive) in the test with HOP-92; 16 µM (inactive) in the test with IGROV-1; > 100 µM (inactive) in the test on NCI-H226; > 100 µM (inactive) in the test with HCC 2998; 68.5 µM (inactive) in the test with NCI-H460; 38.4 µM (inactive) in the test on HCT-116. Further, the GI50 in the test with Hs-578T is 14.1 µM (inactive); in the test with UO-31, 24.2 µM (inactive); in the test with SF-295, > 100 µM (inactive); in the test on SW-620, 86.9 µM (inactive).

On to `C=C1C(=O)O[C@@H]2/C=C(\C)CC/C=C(/COC(C)=O)C[C@@H](OC(C)=O)[C@@H]12`, for which the GI50 with MDA-N was 6 µM (inactive); in the test on SK-OV-3, 40.6 µM (inactive); in the test on SN12C, 11.3 µM (inactive); in the test on MDA-MB-231, 14.9 µM (inactive); in the test on UACC-62, 12.4 µM (inactive); in the test on RPMI-8226, 3.39 µM (inactive). The GI50 with SNB-19 is 29.2 µM (inactive); in the test with T47D, 11.4 µM (inactive); with HOP-92, 7.73 µM (inactive); in the test on Malme-3M, 1.46 µM (inactive); with IGROV-1 it was 13.4 µM (inactive); in the test with NCI-H226, 19.8 µM (inactive). The GI50 was 16.5 µM (inactive) with HCC 2998; 12.1 µM (inactive) in the test with NCI-H460; 3.85 µM (inactive) in the test with HCT-116; 10.4 µM (inactive) in the test on Hs-578T; 8.87 µM (inactive) in the test on UO-31; 53.7 µM (inactive) in the test on SF-295. Also, the GI50 in the test on SW-620 was 3.94 µM (inactive).

With `COC1Cc2c(C)c(OC(C)=O)c3cccnc3c2O1` (stereo not given), the GI50 is 20.8 µM (inactive) in the test with MDA-N; 26.9 µM (inactive) in the test with SK-OV-3; 18.5 µM (inactive) with SN12C; > 100 µM (inactive) with MDA-MB-231; 14.7 µM (inactive) with UACC-62; 28.6 µM (inactive) in the test with RPMI-8226. The GI50 in the test on SNB-19 is > 100 µM (inactive); with T47D it was 24.1 µM (inactive); in the test on HOP-92, 18.6 µM (inactive); in the test with Malme-3M, 13.8 µM (inactive); in the test with IGROV-1, 13.3 µM (inactive); in the test with NCI-H226, 39 µM (inactive). In addition, the GI50 in the test with HCC 2998 is > 100 µM (inactive); with NCI-H460, 25.4 µM (inactive); in the test on HCT-116, 34.9 µM (inactive); in the test with Hs-578T, 30.3 µM (inactive); in the test on UO-31, 13.9 µM (inactive); with SF-295, 32.4 µM (inactive). In addition, in the test with SW-620, the GI50 was 13.5 µM (inactive).

For `OC1(c2ccc(Cl)cc2)c2ccccc2-c2nc3ccccc3n21` (stereo not given), the GI50 is > 100 µM (inactive) in the test with MDA-N; 49 µM (inactive) in the test on SK-OV-3; > 100 µM (inactive) in the test on SN12C; > 100 µM (inactive) in the test with MDA-MB-231; > 100 µM (inactive) with UACC-62; 49.3 µM (inactive) in the test on RPMI-8226. Besides, the GI50 was 51.6 µM (inactive) with SNB-19; > 100 µM (inactive) in the test with T47D; > 100 µM (inactive) with HOP-92; 73.5 µM (inactive) in the test on IGROV-1; 45.9 µM (inactive) in the test with NCI-H226; 74 µM (inactive) in the test on HCC 2998. Further, the GI50 in the test on NCI-H460 is 65.8 µM (inactive); in the test on HCT-116 it was 90.4 µM (inactive); in the test on Hs-578T, > 100 µM (inactive); with UO-31, > 100 µM (inactive); with SF-295, 97.9 µM (inactive); with SW-620 it was > 100 µM (inactive).
